Results published in ChEMBL document CHEMBL3885881, “DrugMatrix”.

Species: Rattus norvegicus
Experiment: DrugMatrix - Regimen: Daily Repeat
Type: toxicity, organism-based, Sprague-Dawley
Parameters: regimen Daily Repeat, gender Male, age 6-8 weeks
Details: in vivo, po, route oral GAVAGE, vehicle .5 % CMC; for ABSOLUTE BASOPHIL / ABSOLUTE EOSINOPHIL / ABSOLUTE LYMPHOCYTE / ABSOLUTE MONOCYTE / ABSOLUTE SEGMENTED NEUTROPHIL / BASOPHIL / EOSINOPHIL / ERYTHROCYTE COUNT / HEMATOCRIT / HEMOGLOBIN / LEUKOCYTE COUNT / LYMPHOCYTE / MEAN CORPUSCULAR HEMOGLOBIN / MEAN CORPUSCULAR HEMOGLOBIN CONCENTRATION / MEAN CORPUSCULAR VOLUME / MONOCYTE / NEUTROPHIL / NUCLEATED RED BLOOD CELLS / PLATELET COUNT: tissue Blood; for ALANINE AMINOTRANSFERASE / ALBUMIN / ALKALINE PHOSPHATASE / ASPARTATE AMINOTRANSFERASE / BLOOD UREA NITROGEN / CARBON DIOXIDE / CHLORIDE / CHOLESTEROL / CREATINE PHOSPHOKINASE / CREATININE / GLUCOSE / LACTATE DEHYDROGENASE / LIPASE / PHOSPHORUS / POTASSIUM / SODIUM / TOTAL BILIRUBIN / TOTAL PROTEIN / URIC ACID: tissue Plasma
[1] = 100 mg/kg, 72 h, dose level Low, time 3 day
[2] = 100 mg/kg, 120 h, dose level Low, time 5 day
[3] = 1500 mg/kg, 72 h, dose level High, time 3 day
[4] = 1500 mg/kg, 120 h, dose level High, time 5 day

## CC(C)Oc1ccc2c(=O)c(-c3ccccc3)coc2c1 [IPRIFLAVONE]
[1]
  ABSOLUTE BASOPHIL: 0 CELLS/uL
  ABSOLUTE EOSINOPHIL: 99.33 CELLS/uL
  ABSOLUTE LYMPHOCYTE: 13635.33 CELLS/uL
  ABSOLUTE MONOCYTE: 415.67 CELLS/uL
  ABSOLUTE SEGMENTED NEUTROPHIL: 2916.33 CELLS/uL
  BASOPHIL: 0%
  EOSINOPHIL: 0.67%
  ERYTHROCYTE COUNT: 5.96 x10E6/uL
  HEMATOCRIT: 37.1%
  HEMOGLOBIN: 14.43 G/DL
  LEUKOCYTE COUNT: 17.07 x10E3/uL
  LYMPHOCYTE: 80.33%
  MEAN CORPUSCULAR HEMOGLOBIN: 24.23 pg
  MEAN CORPUSCULAR HEMOGLOBIN CONCENTRATION: 38.93 G/DL
  MEAN CORPUSCULAR VOLUME: 62.3 fL
  MONOCYTE: 2.33%
  NEUTROPHIL: 16.67%
  NUCLEATED RED BLOOD CELLS: 0 /100WBC
  PLATELET COUNT: 1359 x10E3/uL
  ALANINE AMINOTRANSFERASE: 44 u/L
  ALBUMIN: 4.53 G/DL
  ALKALINE PHOSPHATASE: 342.67 u/L
  ASPARTATE AMINOTRANSFERASE: 79.33 u/L
  BLOOD UREA NITROGEN: 19.67 mg/dL
  CARBON DIOXIDE: 24.33 mmol/L
  CHLORIDE: 97.67 MEQ/L
  CHOLESTEROL: 61.67 mg/dL
  CREATINE PHOSPHOKINASE: 241.33 u/L
  CREATININE: 0.23 mg/dL
  GLUCOSE: 153.33 mg/dL
  LACTATE DEHYDROGENASE: 129.33 u/L
  LIPASE: 9.67 u/L
  PHOSPHORUS: 11.17 mg/dL
  POTASSIUM: 7.3 MEQ/L
  SODIUM: 139.57 MEQ/L
  TOTAL BILIRUBIN: 0.23 mg/dL
  TOTAL PROTEIN: 6.17 G/DL
  URIC ACID: 2.23 mg/dL
[2]
  ABSOLUTE BASOPHIL: 0 CELLS/uL
  ABSOLUTE EOSINOPHIL: 57.67 CELLS/uL
  ABSOLUTE LYMPHOCYTE: 12897.67 CELLS/uL
  ABSOLUTE MONOCYTE: 315.33 CELLS/uL
  ABSOLUTE SEGMENTED NEUTROPHIL: 1196 CELLS/uL
  BASOPHIL: 0%
  EOSINOPHIL: 0.33%
  ERYTHROCYTE COUNT: 6.06 x10E6/uL
  HEMATOCRIT: 36.3%
  HEMOGLOBIN: 14.4 G/DL
  LEUKOCYTE COUNT: 14.47 x10E3/uL
  LYMPHOCYTE: 89%
  MEAN CORPUSCULAR HEMOGLOBIN: 23.8 pg
  MEAN CORPUSCULAR HEMOGLOBIN CONCENTRATION: 39.67 G/DL
  MEAN CORPUSCULAR VOLUME: 59.93 fL
  MONOCYTE: 2%
  NEUTROPHIL: 8.67%
  NUCLEATED RED BLOOD CELLS: 0.33 /100WBC
  PLATELET COUNT: 1112 x10E3/uL
  ALANINE AMINOTRANSFERASE: 47 u/L
  ALBUMIN: 4.3 G/DL
  ALKALINE PHOSPHATASE: 297.33 u/L
  ASPARTATE AMINOTRANSFERASE: 91.33 u/L
  BLOOD UREA NITROGEN: 15 mg/dL
  CARBON DIOXIDE: 25.33 mmol/L
  CHLORIDE: 100.67 MEQ/L
  CHOLESTEROL: 64 mg/dL
  CREATINE PHOSPHOKINASE: 318.67 u/L
  CREATININE: 0.19 mg/dL
  GLUCOSE: 158.67 mg/dL
  LACTATE DEHYDROGENASE: 474.67 u/L
  LIPASE: 9 u/L
  PHOSPHORUS: 11.83 mg/dL
  POTASSIUM: 6.46 MEQ/L
  SODIUM: 142.8 MEQ/L
  TOTAL BILIRUBIN: 0.13 mg/dL
  TOTAL PROTEIN: 5.93 G/DL
  URIC ACID: 1.7 mg/dL
[3]
  ABSOLUTE BASOPHIL: 0 CELLS/uL
  ABSOLUTE EOSINOPHIL: 0 CELLS/uL
  ABSOLUTE LYMPHOCYTE: 12351.67 CELLS/uL
  ABSOLUTE MONOCYTE: 95 CELLS/uL
  ABSOLUTE SEGMENTED NEUTROPHIL: 2086.67 CELLS/uL
  BASOPHIL: 0%
  EOSINOPHIL: 0%
  ERYTHROCYTE COUNT: 5.63 x10E6/uL
  HEMATOCRIT: 34.7%
  HEMOGLOBIN: 13.77 G/DL
  LEUKOCYTE COUNT: 14.53 x10E3/uL
  LYMPHOCYTE: 85%
  MEAN CORPUSCULAR HEMOGLOBIN: 24.47 pg
  MEAN CORPUSCULAR HEMOGLOBIN CONCENTRATION: 39.67 G/DL
  MEAN CORPUSCULAR VOLUME: 61.63 fL
  MONOCYTE: 0.67%
  NEUTROPHIL: 14.33%
  NUCLEATED RED BLOOD CELLS: 0.33 /100WBC
  PLATELET COUNT: 1247.33 x10E3/uL
  ALANINE AMINOTRANSFERASE: 44.33 u/L
  ALBUMIN: 4.3 G/DL
  ALKALINE PHOSPHATASE: 325 u/L
  ASPARTATE AMINOTRANSFERASE: 80.33 u/L
  BLOOD UREA NITROGEN: 15.33 mg/dL
  CARBON DIOXIDE: 27 mmol/L
  CHLORIDE: 101 MEQ/L
  CHOLESTEROL: 68.67 mg/dL
  CREATINE PHOSPHOKINASE: 256.33 u/L
  CREATININE: 0.15 mg/dL
  GLUCOSE: 149.33 mg/dL
  LACTATE DEHYDROGENASE: 181 u/L
  LIPASE: 9.33 u/L
  PHOSPHORUS: 12.3 mg/dL
  POTASSIUM: 6.1 MEQ/L
  SODIUM: 143.17 MEQ/L
  TOTAL BILIRUBIN: 0.1 mg/dL
  TOTAL PROTEIN: 5.67 G/DL
  URIC ACID: 1.53 mg/dL
[4]
  ABSOLUTE BASOPHIL: 0 CELLS/uL
  ABSOLUTE EOSINOPHIL: 0 CELLS/uL
  ABSOLUTE LYMPHOCYTE: 12219.33 CELLS/uL
  ABSOLUTE MONOCYTE: 47.33 CELLS/uL
  ABSOLUTE SEGMENTED NEUTROPHIL: 1100 CELLS/uL
  BASOPHIL: 0%
  EOSINOPHIL: 0%
  ERYTHROCYTE COUNT: 5.81 x10E6/uL
  HEMATOCRIT: 35.17%
  HEMOGLOBIN: 14.03 G/DL
  LEUKOCYTE COUNT: 13.37 x10E3/uL
  LYMPHOCYTE: 91.33%
  MEAN CORPUSCULAR HEMOGLOBIN: 24.23 pg
  MEAN CORPUSCULAR HEMOGLOBIN CONCENTRATION: 39.9 G/DL
  MEAN CORPUSCULAR VOLUME: 60.63 fL
  MONOCYTE: 0.33%
  NEUTROPHIL: 8.33%
  NUCLEATED RED BLOOD CELLS: 0 /100WBC
  PLATELET COUNT: 1215 x10E3/uL
  ALANINE AMINOTRANSFERASE: 48 u/L
  ALBUMIN: 4.47 G/DL
  ALKALINE PHOSPHATASE: 278.33 u/L
  ASPARTATE AMINOTRANSFERASE: 72.33 u/L
  BLOOD UREA NITROGEN: 14.67 mg/dL
  CARBON DIOXIDE: 25.67 mmol/L
  CHLORIDE: 102.33 MEQ/L
  CHOLESTEROL: 53 mg/dL
  CREATINE PHOSPHOKINASE: 231 u/L
  CREATININE: 0.16 mg/dL
  GLUCOSE: 153 mg/dL
  LACTATE DEHYDROGENASE: 157.33 u/L
  LIPASE: 9.67 u/L
  PHOSPHORUS: 11.6 mg/dL
  POTASSIUM: 6.76 MEQ/L
  SODIUM: 145.4 MEQ/L
  TOTAL BILIRUBIN: 0.2 mg/dL
  TOTAL PROTEIN: 6.17 G/DL
  URIC ACID: 1.9 mg/dL
